These results are taken from publication PMC5913645, “Methyl phenlactonoates are efficient strigolactone analogs with simple structure” (Journal of Experimental Botany, 2017).

Series [1] concerns parasite seed. The conditions noted are these: ref Fukui et al., 2013; cited from earlier work.
For series [2], the system named is P. ramosa seeds. Description: P. ramosa seed germination bioassay. In kind it is in vivo, Phelipanche ramosa. The conditions noted are these: 1.0 μM. Here is the method:
(§1) Parasitic weed seeds’ (S. hermonthica and P. ramosa) germination activity was studied as described previously ([Jamil et al., 2012]). Six pre-conditioned seed discs were placed in a 90 mm Petri dish containing a filter paper ring wetted with 0.9 ml sterile MilliQ water. Then 50 μl of SL analog solution (10^–5–10^–12 M) was applied on each of the six discs, for each concentration. GR24 solutions with equal concentrations and sterile MilliQ water were included as a positive and negative control, respectively. After application, seeds of S. hermonthica and P. ramosa were incubated in dark at 30 °C for 2 d and at 25 °C for 4 d, respectively. Germination (seeds with radicle emerging through the seed coat) was scored under a binocular microscope, and germination rate (%) was calculated.

Series [3] is described as follows: Chemical stability in aqueous solution (UHPLC). The class given is physicochemical. To be noted: aqueous solution pH 6.8, 21 °C, 50 μg ml^−1, monitored at 24 h intervals up to 3 weeks. Here is the method:
Aqueous solutions of MPs (50 μg ml^−1; pH 6.8) were incubated at 21 °C in amber HPLC vials (adapted from [de Saint Germain et al., 2016]). For sample preparation, 50 μl of an acetone solution (1 mg ml^−1) was diluted to the final concentration with methanol (425 μl), water (500 μl) and 25 μl of 1-indanol (1.0 mg ml^−1 solution in acetone) as internal standard. […] Compounds eluted from the column were detected with a diode array detector. The relative quantity of remaining (non-degraded) product was determined by comparison with the internal standard. Stability was monitored at 24 h intervals up to 3 weeks.

The test system of series [4] is rice d10 mutant. Nature of the series: Rice micro tillering bioassay, d10 mutant. To be noted: 2.5 μM. The class given is in vivo. Here is the method:
Rice seeds (WT, d3, d10) were surface-sterilized by washing with 70% ethanol for 1 min and then with 2.5% sodium hypochlorite for 15 min. Seeds were then rinsed thoroughly with sterile MilliQ water and incubated in water for 2 d at 30 °C in the dark. Pre-germinated seeds were transferred to filter papers containing half-strength MS medium in 90 mm Petri dishes and incubated at 30 °C under fluorescent white light (130–180 μmol m^−2 s^−1) for 1 week. Seven-day-old seedlings were transferred to 50 ml falcon tubes (one seedling per tube) containing modified half-strength Hoagland nutrient solution and grown in greenhouse. Plants were treated with MPs at 2.5 μM to 2.5 × 10^–7 μM, using GR24 as positive control. The compounds were applied six times, twice a week. Number of tillers per plant, plant height and fresh biomass were measured at final harvest.
Statistical analyses were carried out using the statistical software package R (version 3.2.2). Dose–response curves and half-maximum effective concentrations (EC50) were calculated to determine optimum amount of MPs. The synthetic strigolactone analog GR24 was used as reference to estimate efficacy of selected compounds. EC50 and estimated response were calculated using the drc package (https://cran.r-project.org/web/packages/drc/) with a four parameter logistic curve (dose–response curve) ([Ritz and Streibig, 2005]).

Series [5] deals with S. hermonthica seeds. Description: Striga hermonthica seed germination bioassay. The conditions noted are these: for EC50: Striga hermonthica, concentrations 10^–5 to 10^–12 M; for germination activity, order among the chlorophenyl compounds: species not given. The class given is in vivo. Here is the method: as §1, with “calculated. Statistical analyses were carried out using the statistical software package R (version 3.2.2). Dose–response curves and half-maximum effective concentrations (EC50) were calculated to determine optimum amount of MPs. The synthetic strigolactone analog GR24 was used as reference to estimate efficacy of selected compounds. EC50 and estimated response were calculated using the drc package (https://cran.r-project.org/web/packages/drc/) with a four parameter logistic curve (dose–response curve) ([Ritz and Streibig, 2005]).” for “calculated.”

Series [6] concerns Arabidopsis seedlings. Nature of the series: Arabidopsis lateral root density. The class given is in vivo. The conditions noted are these: 1.0 μM, 8-day-old seedlings. Here is the method: Sterilized Arabidopsis seeds were sown on half-strength MS (with 0.5% sucrose+1% agar, 0.5 g l^−1 MES, pH 5.7) plates supplemented with GR24 or MPs (at 1.0 μM). Plates were stored at 4 °C in darkness for 3 d and then vertically grown at 22 °C in a Percival incubator under long day condition (16 h at 22 °C/8 h at 16 °C day/night, 60% relative humidity, 60–70 μmol m^−2 s^−1 white light) for 8 d. For determining the effect on lateral root density and primary root length, at least 30 seedlings were measured using ImageJ software after scanning roots.

In series [7] the test system is Arabidopsis seedlings. Nature of the series: Arabidopsis hypocotyl elongation assay. The class given is in vivo. To be noted: 1.0 μM, continuous red light. Here is the method:
Sterilized Arabidopsis seeds were sown on half-strength MS (with 0.5% sucrose+1% agar, 0.5 g l^−1 MES, pH 5.7) plates supplemented with MPs or GR24 (at 1.0 μM). Plates were stored at 4 °C in darkness for 3 d. To initiate germination, plates were exposed to continuous white light for 24 h, then transferred to continuous monochromatic red light (20 μmol m^−2 s^−1, 22 °C) conditions for another 4 d. For hypocotyl length measurement, at least 30 seedlings were measured using the freely available ImageJ software (http://rsbweb.nih.gov/ij/) after taking digital photographs. A monochromatic red light source was applied as described previously ([Wu and Yang, 2010]). Light flow rates were measured using a Li250 quantum photometer (Li-Cor, Lincoln, NE, USA).

In series [8] the test system is P. ramosa seeds. Details: method as in Wigchert et al., 1999. To be noted: ref Wigchert et al., 1999; cited from earlier work.
For series [9], the system named is S. hermonthica seeds. The conditions noted are these: cited from earlier work.
Series [10] relates to Arabidopsis seedlings. More on the design: method as in Jia et al. (2016). To be noted: ref Jia et al., 2016; cited from earlier work.

Entries after “also recorded” stand apart in the source; their conditions may differ.

Take `CC1=CC(Oc2ccc(Br)cc2)OC1=O` (centres unmarked) [4-Br-debranone]: the “activity in inducing parasite seed germination” value in [1] is listed as “moderate activity”.

For `COC(=O)/C(=C/OC1C=C(C)C(=O)O1)c1ccccc1[N+](=O)[O-]` (centres unmarked) [MP2], in series [2], the “P. ramosa germination activity” value was “much higher activity”. Also, the “stability in comparison with GR24” value in series [3] is on record as “more stable than GR24”. Besides, the “growth, senescence symptoms and biomass of rice seedlings” value (“growth, senescence symptoms and biomass” for short) in series [4] is “stunted the growth and caused senescence symptoms”. This compound also gave an EC50 in [5] of 32 nM.

Turning to `COC(=O)/C(=C/OC1C=C(C)C(=O)O1)c1ccc(C)cc1` (centres unmarked) [MP4], the “stability in comparison with GR24” value in series [3] is “more stable than GR24”.

`CC1=CC(O/C=C2/C(=O)OCc3ccccc32)OC1=O` (centres unmarked) [MP5]: the “stability in comparison with GR24” value in [3] is recorded as “more stable than GR24; also recorded: most stable compound”.

Take `COC(=O)/C(=C/OC1C=C(C)C(=O)O1)c1cccc(F)c1` (centres unmarked) [MP6]: the “growth, senescence symptoms and biomass” value in series [4] was “stunted the growth and caused senescence symptoms”.

Regarding `COC(=O)/C(=C/OC1C=C(C)C(=O)O1)c1cccc(Cl)c1` (centres unmarked) [MP8], the “reduction of lateral root number/density” value in series [6] is recorded as “slightly more active than GR24”. Besides, the “P. ramosa germination activity” value in series [2] is on record as “much higher activity”. Moreover, in series [3], the “stability in comparison with GR24” value is reported as “very similar to that of GR24”. Further, the “germination activity, order among the chlorophenyl compounds” value in series [5] was “highest germination activity with MP7 (Cl in para position) followed by MP9 (ortho position) and MP8 (meta position)”.

Take `COC(=O)/C(=C/OC1C=C(C)C(=O)O1)c1ccccc1Cl` (centres unmarked) [MP9]: in [3], the “stability in comparison with GR24” value is reported as “very similar to that of GR24”. In series [4], the “growth, senescence symptoms and biomass” value was “stunted the growth and caused senescence symptoms”. For the same compound, the “germination activity, order among the chlorophenyl compounds” value in [5] is “highest germination activity with MP7 (Cl in para position) followed by MP9 (ortho position) and MP8 (meta position)”.

Take `COC(=O)/C(=C\OC1C=C(C)C(=O)O1)c1ccccc1Cl` (centres unmarked) [MP10]: the “stability in comparison with GR24” value in series [3] is recorded as “more stable than GR24”. Besides, the “growth, senescence symptoms and biomass” value in [4] is “stunted the growth and caused senescence symptoms”.

On to `COC(=O)C(=COC1C=C(C)C(=O)O1)c1cccc2ccccc12` (centres unmarked) [MP11], for which, in [3], the “stability in comparison with GR24” value is “very similar to that of GR24”. Further, the “S. hermonthica germination rate” value in [5] (1.0 μM) was 32%. Besides, in series [5], a half-maximal effect (EC50) was put at 1700 nM.

Turning to `CC1=CC(O/C=C(/C=O)c2ccc([N+](=O)[O-])cc2)OC1=O` (centres unmarked) [MP12, (E)-3-(4-methyl-5-oxo-2,5-dihydrofuran-2-yloxy)-2-(4-nitrophenyl)acrylaldehyde], in [3], the “stability in comparison with GR24” value was “quite unstable and not detectable even after only 24 h”. Further, in series [7], the “inhibition of hypocotyl growth” value was “Apart from MP12 and MP15, all MPs showed significant inhibition”.

Regarding `COC(=O)/C(=C/OC1C=C(C)C(=O)O1)c1ccc(OC)cc1` (centres unmarked) [MP14], in [3], the “stability in comparison with GR24” value is listed as “very similar to that of GR24”.

For the compound `COC(=O)/C(=C/OC1C=C(C)C(=O)O1)c1ccc(O)cc1` (centres unmarked) [MP15], the “stability in comparison with GR24” value in series [3] was “slightly less stable than GR24”. The “inhibition of hypocotyl growth” value in series [7] is “Apart from MP12 and MP15, all MPs showed significant inhibition”.

For `COC(=O)/C(=C/O[C@H]1C=C(C)C(=O)O1)N1C(=O)c2ccccc2C1=O` [Nijmegen-1], in series [8], the “seed germination in P. ramosa” value is on record as “potent inducer”. Besides, the “EC50 for S. hermonthica germination relative to GR24” value in series [9] (ref Wigchert et al., 1999) was “three orders of magnitude higher than GR24”.

With `CC1=CC(O/C=C(/C)c2ccc([N+](=O)[O-])cc2)OC1=O` (centres unmarked) [nitro-phenlactone], in series [10], the “effect on lateral root density” value is on record as “did not affect lateral root density”. The “activity in stimulating S. hermonthica germination” value in [9] (ref Jia et al., 2016) is listed as “very weak activity”.

The EC50 is the midpoint of the concentration-response curve. A low value points to a more potent agent.
